According to PMC6348446 (Journal of Medicinal Chemistry, 2018):
Values belong to the molecule of their own block, whether it stands above or below them.

What was measured:
EOL-1 and A-204 cells = test: Cell viability/proliferation, ranges stated over EOL-1 and A-204; format: cell-based; conditions: Homo sapiens; EOL-1 and A-204, text; read-out: EC50 (cell viability), range
Protocol: (§1) A-204 cells (1 × 10^3) were seeded per well of 384-well plates. After overnight incubation, compounds were added to the cells at logarithmic dose series using the HP digital dispenser D300 (Tecan), normalizing for added DMSO. 1 day and 8 days after seeding cellular ATP content was measured using CellTiterGlo (Promega). Measurements after 8 days were divided by the measurement after 1 day (i.e., the T0 plate) to derive fold proliferation. Data were analyzed with GraphPad Prism software to obtain EC50 values.

EOL-1 cells = test: Cell viability/proliferation (cellular ATP, CellTiterGlo) in EOL-1; format: cell-based; conditions: Homo sapiens, EOL1; EOL-1, text; read-out: EC50 (cytotoxicity, cell viability)
A-204 cells = test: Cell viability/proliferation (cellular ATP, CellTiterGlo) in A-204; format: cell-based; conditions: Homo sapiens, A204; A-204 (printed A-402); read-out: EC50 (cytotoxicity, cell viability)
Protocol: as §1

[1] = Parallel Artificial Membrane Permeability Assay (PAMPA); format: in vitro ADME
Protocol: Test compound (10 µM) was incubated in pre-warmed plasma at 37 ᵒC (that is buffered to pH 7.4 in ratio of 70:30 plasma to buffer). Immediately, at time zero, then at 30, 60, 120, and 180 min, a 50 µL aliquot of the incubation mixture was removed and mixed with 200 µL acetonitrile containing Donepezil as the internal standard (50 ng/ml) to stop the reaction. The samples were centrifuged to sediment the precipitated protein and the plates then sealed prior to UPLC-MS/MS analysis using a Xevo TQ-S Micro (Waters Corporation, USA).
XLfit (IDBS, UK) was used to calculate the exponential decay and consequently the rate constant (k) from the ratio of peak area of test compound to internal standard at each time point. The half-life was calculated for each test compound from the rate by using the […]
Parallel Artificial Membrane Permeability Assay (PAMPA)
PAMPA was performed using a 96-well pre-coated BD Gentest™ PAMPA plate (BD Biosciences, U.K.). Each well was divided into two chambers; donor and acceptor, separated by a lipid-oil-lipid tri-layer constructed in a porous filter. The effective permeability, Pe, of the compound was measured at pH 7.4. Stock solutions (5 mM) of the compound were prepared in DMSO. The compound was then further diluted to 10 µM in phosphate buffered […]
saline at pH 7.4. […] The compound […]
dissolved in phosphate buffered saline was then added to the donor side of the membrane and phosphate buffered saline without compound was added to the acceptor side. The PAMPA plate was left at room temperature for 5 h. After which time, an aliquot (100 µL) was then […]
(§2) removed from both acceptor and donor compartments and mixed with acetonitrile (80 µL) containing an internal standard. The samples were centrifuged (10 min, 5 °C, 3270 g) to sediment precipitated protein and sealed prior to UPLC-MS/MS analysis using a Xevo TQ-S Micro (Waters Corp, USA). Pe was calculated as shown in the below equation: […]
(§3) CA(t) = peak area of compound present in acceptor well at time t = 18000 s Cequi = [CD(t) x VD + CA(t) x VA] / (VD + VA)
(§4) VA = acceptor well volume
(§5) CD(t) = peak area of compound present in donor well at time t = 18000 s Recovery of compound from donor and acceptor wells was calculated and data was only accepted when recovery exceeded 70%.
Using a fast gradient, reverse-phase HPLC method to determine the chromatographic hydrophobicity index (CHI) was determined as described by Camurri and Zaramella (ref. 3) and Valko et al. (ref. 4). Briefly, by plotting the retention time of a set of reference

[2] = CHI LogD determination (reverse-phase HPLC); format: physicochemical; conditions: reversed-phase HPLC (ACE Excel 3 SuperC18 column), pH 7.4; read-out: CHI LogD (pH7.4)
Protocol: as §2, §3, §4, §5
Using a fast gradient, reverse-phase HPLC method to determine the chromatographic hydrophobicity index (CHI) was determined as described by Camurri and Zaramella (ref. 3) and Valko et al. (ref. 4). Briefly, by plotting the retention time of a set of reference […]
compounds against known CHI values. The CHI value of test compounds was then calculated according to their retention time.
Test compounds were prepared as 0.25 mM solutions in 50:50 acetonitrile:water and analysed by reversed-phase HPLC-UV (wavelength 254 nm) using a ACE Excel 3 SuperC18, 3 µm, 50 x 2.1 mm column with a gradient of aqueous phase (10 mM ammonium acetate, pH 7.4) and mobile phase (acetonitrile).
Intrinsic clearance (Cli) experiments
Test compound (0.5 µM) was incubated with female CD1 mouse or human (mixed gender) liver microsomes (Xenotech LLCTM; 0.5 mg/mL 50mM potassium phosphate buffer, pH7.4) and the reaction initiated with addition of excess NADPH (8 mg/mL 50 mM potassium phosphate buffer, pH7.4). Immediately, at time zero, then at 3, 6, 9, 15 and 30 minutes an aliquot (50 µL) of the incubation mixture was removed and mixed with acetonitrile (100 µL) to stop the reaction. Internal standard was added to all samples, the samples centrifuged to sediment precipitated protein and the plates then sealed prior to […] analysis using […]
a Xevo TQ-S Micro (Waters corporation, USA).
XLfit (IDBS, UK) was used to calculate the exponential decay and consequently the rate constant (k) from the ratio of peak area of test compound to internal standard at each timepoint. The rate of intrinsic clearance (CLi) of each test compound was then calculated using the following calculation:
CLi(mL/min/g liver) = k x V x Microsomal protein yield
Where V (mL/mg protein) is the incubation volume/mg protein added and microsomal protein yield is taken as 52.5 mg protein/ g liver. Verapamil (0.5 µM) was used as a positive control to confirm acceptable assay performance.

SMILES: COc1cc(-c2cn(C)c(=O)c3cnccc23)cc(OC)c1CN(C)C [Compound 1a]
- EC50 (EOL-1 and A-204 cells): 90 to 340 nM

SMILES: COc1cc(-c2cn(C)c(=O)c3cnccc23)c(OC)cc1CN(C)C [Compound 1b]
- EC50 (EOL-1 and A-204 cells): 370 to 3550 nM

SMILES: COc1cc(-c2cn(C)c(=O)c3cnccc23)cc(OC)c1CN(C)CC(=O)NCCOCCOCCNc1cccc2c1C(=O)N(C1CCC(=O)NC1=O)C2=O (centres unmarked) [Compound 21, reference compound]
- EC50 (EOL-1 cells): 5 nM
- EC50 (A-204 cells): 90 nM

- recovery at 5 h, 10 µM ([1]; PAMPA, pH 7.4): 88%
- Papp at 5 h, 10 µM ([1]; PAMPA, pH 7.4, 5 h, read-out: PAMPA pH 7.4 Pe): 0.002 ×10⁻⁶ cm/s
- PAMPA pH 7.4 HIGH/MED/LOW ([1]; pH 7.4, permeability class): LOW and low cell permeability
- chromatographic logD [2]: 2
SMILES: COc1cc(-c2cn(C)c(=O)c3cnccc23)cc(OC)c1CN1CCN(CCOCCOc2cc(-c3scnc3C)ccc2CNC(=O)[C@@H]2C[C@@H](O)CN2C(=O)[C@@H](NC(=O)C2(F)CC2)C(C)(C)C)CC1 [Compound 46, (2S,4R)-N-(2-(2-(2-(4-(2,6-Dimethoxy-4-(2-methyl-1-oxo-1,2-dihydro-2,7-naphthyridin-4-yl)benzyl)piperazin-1-yl)ethoxy)ethoxy)-4-(4-methylthiazol-5-yl)benzyl)-1-((S)-2-(1-fluorocyclopropane-1-carboxamido)-3,3-dimethylbutanoyl)-4-hydroxypyrrolidine-2-carboxamide]
